Test results reported in US20190040025A1, “INDOLEAMINE 2,3-DIOXYGENASE INHIBITOR, PREPARATION METHOD THEREFOR, AND APPLICATION” (Jiangsu Hansoh Pharmaceutical Group Co., Ltd., priority 2016, published 2019).

Key:
[1] = biological target: T1, Human indoleamine 2,3-dioxygenase (IDO) (Homo sapiens, UniProt P14902); assay: Enzymatic test for IDO activity inhibition; format: biochemical; details: 40 nM IDO enzyme, 0.2 mM L-tryptophan, 60 minutes at 30° C.
T1 construct: purchased BPS Bioscience Inc
Protocol: Human indoleamine 2,3-dioxygenase (IDO) was purchased from BPS Bioscience Inc. The enzymatic reaction of idoleamine 2,3-dioxygenase (IDO) was performed in a 96-well plate with a reaction volume of 20 μL. The reaction conditions were: 40 nM IDO enzyme, 0.2 mM L-tryptophan, 50 mM KPB (pH 6.5) buffer, 20 mM sodium L-L-ascorbate, 10 μM methylene blue, 0.2 mg/mL catalase, different concentrations of compounds containing <1% dimethyl sulfoxide. After reacting for 60 minutes at 30° C., 5 μL of 30% (w/v) trichloroacetic acid (in 50 mM KPB buffer) weres added to each well. The plate was incubated for 30 minutes at 50° C. to hydrolyze N-formyl-kynurenine to kynurenine. 25 μL of 2% (w/v) p-(dimethylamino)benzaldehyde (p-DMBA)/glacial acetic acid solution were added to each well. The absorbance at 490 nm was read on a BioTek Synergy H1 microplate reader […].
The stock solution of the test compound was prepared to 10 mM with dimethyl sulfoxide, diluted with dimethyl sulfoxide to the highest concentration of the test during the experiment, then diluted in 1:3 gradient, and generally diluted to 8 to 10 concentration points. Duplicate wells were set for each concentration point, and one reference compound was included in each experiment. The original data of the absorbance at 490 nm read on a microplate reader were analyzed. The inhibition of IDO enzyme activity was calculated at different concentrations of the test compound. The half-inhibitory concentration IC50 value of the compound was obtained by non-linear fitting analysis of inhibition percentage data by GraphPad Prism software.

[2] = biological target: T2, indoleamine 2,3-dioxygenase (IDO) in HeLa cells (Homo sapiens, UniProt P14902); assay: Cell model test for IDO activity inhibition (interferon γ induced HeLa cells); format: cell-based; details: interferon γ 50 ng/mL, 24 hours, read-out: Cytological Test IC50
T2 construct: Interferon γ induced the expression of IDO in HeLa cells; host or cells: HeLa cells induced with interferon γ
T2 sequence (P14902 whole entry): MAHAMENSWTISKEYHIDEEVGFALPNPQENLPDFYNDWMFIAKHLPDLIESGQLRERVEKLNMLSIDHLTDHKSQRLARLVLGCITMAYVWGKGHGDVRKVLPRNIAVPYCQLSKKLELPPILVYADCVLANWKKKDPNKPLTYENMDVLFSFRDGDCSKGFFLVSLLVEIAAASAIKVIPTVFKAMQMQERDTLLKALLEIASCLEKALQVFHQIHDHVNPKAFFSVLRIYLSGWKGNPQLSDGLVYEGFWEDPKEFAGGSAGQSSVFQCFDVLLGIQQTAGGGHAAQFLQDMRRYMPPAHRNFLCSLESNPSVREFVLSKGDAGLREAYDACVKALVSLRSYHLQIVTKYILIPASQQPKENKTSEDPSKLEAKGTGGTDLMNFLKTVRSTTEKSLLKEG
Protocol: Interferon γ induced the expression of IDO in HeLa cells. This model was used to test the inhibitory activity of compounds on indoleamine 2,3-dioxygenase (IDO). The culture medium of HeLa cells (ATCC) was phenol red-free RPMI-1640 containing 100 μM L-tryptophan. The stock solution of the test compound was prepared to 10 mM with dimethyl sulfoxide, and diluted with dimethyl sulfoxide to the highest concentration of the test during the experiment, then diluted in three-fold gradient, and generally diluted to 8 to 10 concentration points. Duplicate wells were set for each concentration point. The final concentration of DMSO was 0.5%, and internal reference compound was included in each experiment.
The procedure of the experiment was as follows: 20,000 HeLa cells (ATCC) per well were added on a 96-well culture plate and incubated overnight. After 24 hours, interferon γ (final concentration of 50 ng/mL) and different concentrations of the test compound and the internal reference compound were added to the incubated cells. After 24 hours, 140 μL of the supernatant/well was transferred to a new 96-well plate, and 10 μL of 6.1 N trichloroacetic acid was added to each well. The plate was incubated for 30 minutes at 50° C. to hydrolyze N-formyl-kynurenine to kynurenine. The reaction mixture was centrifuged at 2500 rpm for 10 minutes to remove the precipitate, and the supernatant (100 μL) was transferred to another new 96-well plate. 100 μL of 2% (W/V) p-(dimethylamino)benzaldehyde (p-DMBA)/glacial acetic acid solution was added to each well. The absorbance at 490 nm was read on a BioTek Synergy H1 microplate reader […].
The original data of the absorbance at 490 nm read on a microplate reader were analyzed. The inhibition of IDO enzyme activity was calculated at different concentrations of the test compound. The half-inhibitory concentration IC50 value of the compound was obtained by non-linear fitting analysis of inhibition percentage data by GraphPad Prism software.

[3] = Pharmacokinetic (PK) analysis of rat plasma; format: in vivo; details: Sprague-Dawley, po, 20 mg/kg, SD rats, single gavage, 20 mg/10 mL/kg
Protocol: The pharmacokinetics test of the test compound was performed with Sprague Dawley (SD) rats (Shanghai Slac Laboratory Animal Co., LTD).
Mode of administration: Single gavage.
U Dosage: 20 mg/10 mL/kg.
Formulation prescription: 3% dimethylacetamide and 20% hydroxypropyl-3-cyclodextrin.
Sampling points: before administration and 15 minutes, 0.5, 1, 2, 4, 6, 8 and 24 hours after administration.
Plasma sampling and sample processing: • 1) 0.2 ml of intravenous blood was collected and placed in an EDTA-2K tube. The blood was centrifuged at 4° C. for 5 minutes at 6,000 rpm to separate the plasma, which was stored at −80° C. • 2) 160 μL of acetonitrile were added to 40 μL of plasma sample, standard, and internal reference. The mixture was shaken vertically for 3 minutes, and centrifuged at 4000 rpm for 10 minutes. 100 μL of the supernatant were taken, and then added with 100 μL of deionized water and mixed well. 100 μL of the resulting solution was taken for LC/MS/MS analysis. The instrument for plasma LC/MS/MS analysis was AB Sciex API 4000.
Liquid Chromatography Analysis: • Liquid chromatography conditions: Shimadzu LC-20AD pump • Chromatographic column: phenomenex Gemiu 5 μm C18 50×4.6 mm • Mobile phase: solution A was 0.1% formic acid solution, and solution B was acetonitrile • Flow rate: 0.8 mL/min • Elution time: 0-3.01 minutes and the eluent was as follows:
• Mass spectrometry analysis: setup conditions of mass spectrometer: positive ion electrospray ionization (ESI) mode. • Experimental results: the main parameters of pharmacokinetics were calculated by WinNonlin 6.1 and the experimental results are shown in the following table: […]

[4] = tested on: mouse rectal cancer cell line Colon26; assay: Anti-tumor effect in Colon26 tumor-bearing mouse model; format: in vivo, mouse (Balb/c); details: Colon26 tumor-bearing mice, 10 mg/kg, D12
Text: The present invention further used the Colon26 tumor-bearing mouse model to test the anti-tumor effect of the example compounds. The Colon26 tumor-bearing mouse model was the mouse rectal cancer cell line Colon26 purchased from Guangzhou Ginio Biological Technology Co., Ltd., and the culture medium used was RPMI1640 containing 10% fetal bovine serum. The mouse strain used for tumor-bearing was Balb/c purchased from Sino-British SIPPR/BK Lab Animal Co., Ltd. At the time of implanting, the Colon26 cells in logarithmic growth phase were collected and mixed to 10 million cells/ml. Each mouse was implanted subcutaneously with 100 μl of one million cells. When the tumor grew to about 100 cubic millimeters, animals were randomly divided into groups with 8 animals per group. Drug administration was started (D0).
Mode of administration: intragastric administration, twice a day.
Formulation prescription: 3% dimethylacetamide and 20% hydroxypropyl-β-cyclodextrin. • Administration period and tumor measurement: The administration period was 13 days. The tumor volume was measured, the mice were weighed, and the data were recorded, 3 times per week. The calculation formula of tumor volume (V) is: V=½a×b2 where a and b represent length and width, respectively. The calculation formula of T/C is: T/C (%)=100×ΔT/ΔC. Tumor inhibition rate (%)=1−T/C (%). • Experimental results: The antitumor effect of the compound of Example 15 in Colon26 tumor-bearing mouse model is shown in the following table.
Under the same experimental conditions, the dosage was adjusted. The anti-tumor effect of Example 15 and its optical isomers 18-(1) and 18-(2) in Colon26 tumor-bearing mouse model is shown in the following table: […]

T1 sequence (P14902 whole entry): as above

Structure (SMILES)	IC50 [1] [nM]	IC50 [2] [nM]	AUC(0-inf) [3] [ng·h/mL]	Cmax [3] [ng/mL]	Tmax [3] [min]	half-life [3] [min]	Tumor inhibition rate (%) D12 [4] [%]
NS(=O)(=O)NC1CCC(Nc2nonc2/C(=N/O)Nc2ccc(F)c(Br)c2)CC1 (centres unmarked) [Example 10, (Z)—N-(3-bromo-4-fluorophenyl)-N′-hydroxy-4-((4-(sulfamoylamino)cyclohexyl)amino)-1,2,5-oxadiazole-3-carboximidamide]	19	37					
NC(=O)C(=O)NCCNc1nonc1/C(=N/O)Nc1ccc(F)c(Br)c1 [Example 1, (Z)—N^1-(2-((4-(N-(3-bromo-4-fluorophenyl)-N′-hydroxycarbamimidoyl)-1,2,5-oxadiazol-3-yl)amino)ethyl)oxalamide]	70	15	8620	3680	30	162	
CNC(=O)C(=O)NCCNc1nonc1/C(=N/O)Nc1ccc(F)c(Br)c1 [Example 2, (Z)—N^1-(2-((4-(N-(3-bromo-4-fluorophenyl)-N′-hydroxycarbamimidoyl)-1,2,5-oxadiazol-3-yl)amino)ethyl)-N^2-methyloxalamide]	71	18					
Cc1ccc(S(=O)(=O)N=S(C)(=O)NCCNc2nonc2C(=NO)Nc2ccc(F)c(Br)c2)cc1 (centres unmarked) [Example 13, (Z)—N-(3-bromo-4-fluorophenyl)-N′-hydroxy-4-{[2-({S-methyl-N-[(4-methylphenyl)sulfonyl]sulfonimidoyl}amino)ethyl]amino}-1,2,5-oxadiazole-3-carboximidamide]	64	47					
C[S@](=O)(CCNc1nonc1/C(=N/O)Nc1ccc(F)c(Br)c1)=NS(=O)(=O)C1CC1 [Example 18-②, (S,Z)—N-(3-bromo-4-fluorophenyl)-4-((2-(N-(cyclopropylsulfonyl)-S-methylsulfonimidoyl)ethyl)amino)-N′-hydroxy-1,2,5-oxadiazole-3-carboximidamide]	24	9	4610	2020	30	84	68.49
O=C(NO)C(=O)NCCNc1nonc1/C(=N/O)Nc1ccc(F)c(Br)c1 [Example 8, (Z)—N^1-(2-((4-(N-(3-bromo-4-fluorophenyl)-N′-hydroxycarbamimidoyl)-1,2,5-oxadiazol-3-yl)amino)ethyl)-N^2-hydroxyoxalamide]	76	33					

More lines, in order of falling IC50 [1], values ahead:

IC50 [1] [nM]	IC50 [2] [nM]	AUC(0-inf) [3] [ng·h/mL]	Cmax [3] [ng/mL]	Tmax [3] [min]	half-life [3] [min]	Structure (SMILES)	Tumor inhibition rate (%) D12 [4] [%]
75	16					CCS(=O)(CCNc1nonc1/C(=N/O)Nc1ccc(F)c(Br)c1)=NC (centres unmarked) [Example 17, (Z)—N-(3-bromo-4-fluorophenyl)-N′-hydroxy-4-((2-(N-methylethylsulfonimidoyl)ethyl)amino)-1,2,5-oxadiazole-3-carboximidamide]	
66	19					CN=S(C)(=O)CCNc1nonc1/C(=N/O)Nc1ccc(F)c(Br)c1 (centres unmarked) [Example 16, (Z)—N-(3-bromo-4-fluorophenyl)-4-((2-(N,S-dimethylsulfonimidoyl)ethyl)amino)-N′-hydroxy-1,2,5-oxadiazole-3-carboximidamide]	
56	20					CCNC(=O)C(=O)NCCNc1nonc1/C(=N/O)Nc1ccc(F)c(Br)c1 [Example 3, (Z)—N^1-(2-((4-(N-(3-bromo-4-fluorophenyl)-N′-hydroxycarbamimidoyl)-1,2,5-oxadiazol-3-yl)amino)ethyl)-N^2-ethyloxalamide]	
53	53					O=C(NCCNc1nonc1/C(=N/O)Nc1ccc(F)c(Br)c1)C(=O)NC1CC1 [Example 7, (Z)—N^1-(2-((4-(N-(3-bromo-4-fluorophenyl)-N′-hydroxycarbamimidoyl)-1,2,5-oxadiazol-3-yl)amino)ethyl)-N^2-cyclopropyloxalamide]	
42	38					NS(=O)(=O)NC1CC(Nc2nonc2/C(=N/O)Nc2ccc(F)c(Br)c2)C1 (centres unmarked) [Example 11, (Z)—N-(3-bromo-4-fluorophenyl)-N′-hydroxy-4-((3-(sulfamoylamino)cyclobutyl)amino)-1,2,5-oxadiazole-3-carboximidamide]	
38	12	7540	1050	30	330	CS(=O)(=O)N=S(C)(=O)CCNc1nonc1/C(=N/O)Nc1ccc(F)c(Br)c1 (centres unmarked) [Example 14, (Z)—N-(3-bromo-4-fluorophenyl)-N′-hydroxy-4-((2-(S-methyl-N-(methylsulfonyl)sulfonimidoyl)ethyl)amino)-1,2,5-oxadiazole-3-carboximidamide]	
19	11	7320	2770	30	122	C[S@@](=O)(CCNc1nonc1/C(=N/O)Nc1ccc(F)c(Br)c1)=NS(=O)(=O)C1CC1 [Example 18-①, (R,Z)—N-(3-bromo-4-fluorophenyl)-4-((2-(N-(cyclopropylsulfonyl)-S-methylsulfonimidoyl)ethyl)amino)-N′-hydroxy-1,2,5-oxadiazole-3-carboximidamide]	72.54
